Measurements published in publication PMC10648598, “Physiologic and Transcriptomic Effects Triggered by Overexpression of Wild Type and Mutant DNA Topoisomerase I in Streptococcus pneumoniae” (International Journal of Molecular Sciences, 2023).

Target: T1, TopoI (TopoIWT) (Streptococcus pneumoniae, UniProt Q8DPI9)
T1 construct: gene topA
Assay: biochemical

T1 sequence (Q8DPI9 1-701): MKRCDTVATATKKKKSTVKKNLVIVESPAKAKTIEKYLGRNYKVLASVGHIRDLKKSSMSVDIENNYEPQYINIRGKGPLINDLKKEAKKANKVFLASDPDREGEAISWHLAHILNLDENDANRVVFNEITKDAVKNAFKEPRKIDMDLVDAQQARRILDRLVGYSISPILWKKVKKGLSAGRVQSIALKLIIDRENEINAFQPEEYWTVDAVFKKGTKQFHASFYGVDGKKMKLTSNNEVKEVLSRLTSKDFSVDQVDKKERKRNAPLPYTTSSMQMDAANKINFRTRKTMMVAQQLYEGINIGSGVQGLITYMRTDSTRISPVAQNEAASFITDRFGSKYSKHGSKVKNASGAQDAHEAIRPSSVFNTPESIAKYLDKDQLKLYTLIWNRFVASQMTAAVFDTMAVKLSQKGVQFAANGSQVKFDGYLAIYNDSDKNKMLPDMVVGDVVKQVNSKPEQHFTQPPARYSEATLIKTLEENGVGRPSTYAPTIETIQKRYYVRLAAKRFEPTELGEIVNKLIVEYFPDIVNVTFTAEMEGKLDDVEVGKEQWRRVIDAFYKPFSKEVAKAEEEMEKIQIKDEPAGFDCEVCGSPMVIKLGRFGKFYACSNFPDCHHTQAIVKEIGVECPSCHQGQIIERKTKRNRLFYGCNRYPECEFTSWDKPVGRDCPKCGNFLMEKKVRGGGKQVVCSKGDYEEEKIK

CNCCc1cc2c(c3c1ccc1cc4c(cc13)OCO4)OCO2 [SCN, Seconeolitsine]
IC50: 6.8 ± 2 µM
